Data published in patent US20230142338A1, “THIOPHENYL DERIVATIVES USEFUL FOR MODULATING NUCLEIC ACID SPLICING” (REMIX THERAPEUTICS INC., priority 2020, published 2023).

Experiments:
Assay type in all cases: cell-based
[1] = tested on: HTT CJ mRNA; test: Splicing assay (RT-qPCR): decrease in HTT canonical junction (CJ) mRNA; conditions: A673 or K562 cells, 24 hours treatment; concentration having 50% response in CJ mRNA decrease
Method: (§1) Compounds described herein were used to modulate RNA transcript abundance in cells. The expression of a target mRNA was measured by detecting the formation of an exon-exon junction in the canonical transcript (CJ). A compound mediated exon-inclusion event was detected by observing an increase in formation of a new junction with an alternative exon (AJ). Real-time qPCR assays were used to detect these splicing switches and interrogate the potency of various compounds towards different target genes. A high-throughput real time quantitative PCR (RT-qPCR) assay was developed to measure these two isoforms of the mRNA (CJ and AJ) for an exemplary gene, HTT, together with a control housekeeping gene, GAPDH or GUSB or PPIA, used for normalization. Briefly, the A673 or K562 cell line was treated with various compounds described herein (e.g., compounds of Formula (I)). After treatment, the levels of the HTT mRNA targets were determined from each sample of cell lysate by cDNA synthesis followed by qPCR.
(§2) The A673 cell line was cultured in DMEM with 10% FBS. Cells were diluted with full growth media and plated in a 96-well plate (15,000 cells in 100 ul media per well). The plate was incubated at 37° C. with 5% CO2 for 24 hours to allow cells to adhere. An 11-point 3-fold serial dilution of the compounds was made in DMSO then diluted in media in an intermediate plate. Compounds were transferred from the intermediate plate to the cell plate with the top dose at a final concentration of 10 uM in the well. Final DMSO concentration was kept at or below 0.25%. The cell plate was returned to the incubator at 37° C. with 5% CO2 for an additional 24 hours.
(§3) The K562 cell line was cultured in IMDM with 10% FBS. For K562, cells were diluted with full growth media and plated in either a 96-well plate (50,000 cells in 50 uL media per well) or a 384-well plate (8,000-40,000 cells in 45 uL media per well). An 11-point 3-fold serial dilution of the compounds were made in DMSO then diluted in media in an intermediate plate. Compound was transferred from the intermediate plate to the cell plate with the top dose at a final concentration of 10 uM in the well. Final DMSO concentration was kept at or below 0.25%. Final volume was 100 uL for 96-well plate and 50 uL for 384-well plate. The cell plate was then placed in an incubator at 37° C. with 5% CO2 for 24 hours.
(§4) The cells were then gently washed with 50 uL-100 uL cold PBS before proceeding to addition of lysis buffer. 30 uL-50 uL of room temperature lysis buffer with DNAse I (and optionally RNAsin) was added to each well. Cells were shaken/mixed thoroughly at room temperature for 5-10 minutes for lysis to take place and then 3 uL-5 uL of room temperature stop solution was added and wells were shaken/mixed again. After 2-5 minutes, the cell lysate plate was transferred to ice for RT-qPCR reaction setup. The lysates could also be frozen at −80° C. for later use.
(§5) In some cases, a direct lysis buffer was used. An appropriate volume of 3× lysis buffer (10 mM Tris, 150 mM NaCl, 1.5%-2.5% Igepal and 0.1-1 U/uL RNAsin, pH 7.4) was directly added to either K562 or A673 cells in media and mixed by pipetting 3 times. The plates were then incubated at room temperature with shaking/rocking for 20-50 minutes to allow for lysis to take place. After this time, the cell lysate plate was transferred to ice to set up for the RT-qPCR reactions. The lysates could also be frozen at −80° C. for later use.
(§6) To set up 10 uL RT-qPCR reactions, cell lysates were transferred to 384-well qPCR plates containing the master mix according to the table below. The plates were sealed, gently vortexed, and spun down before the run. The volumes were adjusted accordingly in some instances where the reaction was carried in 20 uL. The table below summarizes the components of the RT-qPCR reactions:
(§7) The RT-qPCR reaction was performed using a QuantStudio (ThermoFisher) under the following fast cycling conditions. […]

[2] = tested on: HTT CJ mRNA; test: Gene panel canonical junction qPCR assay: HTT; conditions: Table 3, concentration having 50% response in CJ decrease, read-out: HTT IC50 (decrease in CJ mRNA levels)
Method: as §1, §2, §3, §4, §5, §6, §7

[3] = tested on: HTT AJ mRNA; test: Splicing assay (RT-qPCR): increase in HTT alternative junction (AJ) mRNA; conditions: A673 or K562 cells, 24 hours treatment; concentration having 50% response in AJ mRNA increase
Method: as §1, §2, §3, §4, §5, §6, §7

[4] = tested on: SMN2 CJ mRNA; test: Gene panel canonical junction qPCR assay: SMN2; conditions: Table 3, concentration having 50% response in CJ decrease, read-out: SMN2 IC50 (decrease in CJ mRNA levels)
Method: as §1, §2, §3, §4, §5, §6, §7

[5] = tested on: Target C CJ mRNA; test: Gene panel canonical junction qPCR assay: Target C; conditions: Table 3, concentration having 50% response in CJ decrease, read-out: Target C IC50 (decrease in CJ mRNA levels)
Method: as §1, §2, §3, §4, §5, §6, §7

| IC50 [2] [µM] | IC50 [4] [µM] | IC50 [5] [µM] | Compound | AC50 [1] [µM] | AC50 [3] [µM] |
| --- | --- | --- | --- | --- | --- |
| 0.1 to 1 | < 0.1 | 0.1 to 1 | Cc1cn2nc(NC(=O)c3sc([C@@H]4CCN[C@H](C)C4)cc3F)cc(C)c2n1 [Compound 101, N-[2,8-dimethylimidazo[1,2-b]pyridazin-6-yl]-3-fluoro-5-[(2R,4R)-2-methylpiperidin-4-yl] thiophene-2-carboxamide] | 0.1 to 1 | 0.1 to 1 |
| 0.1 to 1 | 0.1 to 1 | 1 to 10 | Cc1cn2nc(NC(=O)c3sc([C@H]4CCN[C@@H](C)C4)cc3F)cc(C)c2n1 [Compound 102, N-[2,8-dimethylimidazo[1,2-b]pyridazin-6-yl]-3-fluoro-5-[(2S,4S)-2-methylpiperidin-4-yl] thiophene-2-carboxamide] | 0.1 to 1 | 1 to 10 |
| 0.1 to 1 | < 0.1 | 1 to 10 | Cc1cn2nc(NC(=O)c3sc([C@H]4CCN[C@H](C)C4)cc3F)cc(C)c2n1 [Compound 103, N-[2,8-dimethylimidazo[1,2-b]pyridazin-6-yl]-3-fluoro-5-[(2R,4S)-2-methylpiperidin-4-yl] thiophene-2-carboxamide] | 0.1 to 1 | 0.1 to 1 |
| < 0.1 | < 0.1 | 0.1 to 1 | Cc1cn2nc(NC(=O)c3sc([C@@H]4CCN[C@@H](C)C4)cc3F)cc(C)c2n1 [Compound 104, N-[2,8-dimethylimidazo[1,2-b]pyridazin-6-yl]-3-fluoro-5-[(2S,4R)-2-methylpiperidin-4-yl]thiophene-2-carboxamide] | < 0.1 | 0.1 to 1 |
|  |  |  | Cc1cn2cc(-c3cc(F)c(C(=O)NC4CCN(C)CC4)s3)nc2c(C)n1 [Compound 109, 5-[6,8-dimethylimidazo[1,2-a]pyrazin-2-yl]-3-fluoro-N-(1-methylpiperidin-4-yl)thiophene-2-carboxamide] | 1 to 10 | > 10 |
|  |  |  | Cc1cn2cc(-c3cc(F)c(C(=O)N[C@H]4CCN[C@@H](C)C4)s3)nc2c(C)n1 [Compound 112] | > 10 | > 10 |
|  |  |  | Cc1cn2cc(-c3cc(F)c(C(=O)N[C@H]4CCN[C@H](C)C4)s3)nc2c(C)n1 [Compound 113] | 0.1 to 1 | > 10 |
| 0.1 to 1 | < 0.1 | 1 to 10 | Cc1cn2cc(NC(=O)c3sc([C@@H]4CCN[C@H](C)C4)cc3F)cc(F)c2n1 [Compound 114, 3-fluoro-N-[8-fluoro-2-methylimidazo[1,2-a]pyridin-6-yl]-5-[(2R,4R)-2-methylpiperidin-4-yl]thiophene-2-carboxamide] | 0.1 to 1 | 0.1 to 1 |
| 0.1 to 1 | 0.1 to 1 |  | Cc1cn2cc(NC(=O)c3sc([C@H]4CCN[C@@H](C)C4)cc3F)cc(F)c2n1 [Compound 115, 3-fluoro-N-[8-fluoro-2-methylimidazo[1,2-a]pyridin-6-yl]-5-[(2S,4S)-2-methylpiperidin-4-yl]thiophene-2-carboxamide] | 0.1 to 1 | 0.1 to 1 |
| 0.1 to 1 | < 0.1 | 1 to 10 | Cc1cn2cc(NC(=O)c3sc([C@@H]4CCN[C@@H](C)C4)cc3F)cc(F)c2n1 [Compound 116, 3-fluoro-N-[8-fluoro-2-methylimidazo[1,2-a]pyridin-6-yl]-5-[(2S,4R)-2-methylpiperidin-4-yl]thiophene-2-carboxamide] | 0.1 to 1 | 0.1 to 1 |
| 0.1 to 1 | 0.1 to 1 | 1 to 10 | Cc1cn2cc(NC(=O)c3sc([C@H]4CCN[C@H](C)C4)cc3F)cc(F)c2n1 [Compound 117, 3-fluoro-N-[8-fluoro-2-methylimidazo[1,2-a]pyridin-6-yl]-5-[(2R,4S)-2-methylpiperidin-4-yl]thiophene-2-carboxamide] | 0.1 to 1 | 1 to 10 |
| > 0.01 | 0.1 to 1 |  | Cc1cn2cc(NC(=O)c3ccc(N4CCNC(C)C4)s3)cc(F)c2n1 (stereo not drawn) [Compound 122, N-[8-fluoro-2-methylimidazo[1,2-a]-pyridin-6-yl]-5-(3-methylpip-erazin-1-yl)-thiophene-2-carboxamide] | > 10 | > 10 |
| 1 to 10 | 0.1 to 1 |  | Cc1cn2cc(NC(=O)c3sc(N4CCNCC4)cc3F)cc(F)c2n1 [Compound 126, 3-fluoro-N-[8-fluoro-2-methylimidazo[1,2-a]pyridin-6-yl]-5-(piperazin-1-yl)thiophene-2-carboxamide] | 1 to 10 | 1 to 10 |
| 1 to 10 | 0.1 to 1 |  | Cc1cn2cc(NC(=O)c3sc(N4CCNC(C)C4)cc3F)cc(F)c2n1 (stereo not drawn) [Compound 128, 3-fluoro-N-[8-fluoro-2-methylimidazo[1,2-a]pyridin-6-yl]-5-(3-methylpiperazin-1-yl)thiophene-2-carboxamide] | 1 to 10 | > 10 |
|  |  |  | CCC1CN(c2cc(F)c(C(=O)Nc3cc(F)c4nc(C)cn4c3)s2)CCN1 (stereo not drawn) [Compound 130, 5-(3-ethylpiperazin-1-yl)-3-fluoro-N-[8-fluoro-2-methylimidazo[1,2-a]pyridin-6-yl]thiophene-2-carboxamide] | 1 to 10 | > 10 |
|  |  |  | Cc1cn2cc(NC(=O)c3sc(N4CC5(CN(C)C5)C4)cc3F)cc(F)c2n1 [Compound 135, 3-fluoro-N-[8-fluoro-2-methylimidazo[1,2-a]pyridin-6-yl]-5-[6-methyl-2,6-diazaspiro[3.3]heptan-2-yl]thiophene-2-carboxamide] | 1 to 10 | > 10 |
|  |  |  | Cc1cn2cc(NC(=O)c3sc(N4CCC(N(C)C)CC4)cc3F)cc(F)c2n1 [Compound 140, 5-[4-(dimethylamino)piperidin-1-yl]-3-fluoro-N-[8-fluoro-2-methylimidazo[1,2-a]pyridin-6-yl]thiophene-2-carboxamide] | 1 to 10 | 0.1 to 1 |
| 0.1 to 1 | < 0.1 |  | Cc1cn2cc(NC(=O)c3sc(C4CCNCC4)cc3F)cc(F)c2n1 [Compound 144, 3-fluoro-N-[8-fluoro-2-methylimidazo[1,2-a]pyridin-6-yl]-5-(piperidin-4-yl) thiophene-2-carboxamide] | 0.1 to 1 | 0.1 to 1 |
|  |  |  | Cc1cn2cc(NC(=O)c3sc(C4CC(C)(C)NC(C)(C)C4)cc3F)cc(F)c2n1 [Compound 148, 3-fluoro-N-[8-fluoro-2-methylimidazo[1,2-a]pyridin-6-yl]-5-(2,2,6,6-tetramethylpiperidin-4-yl)thiophene-2-carboxamide] | 0.1 to 1 | 0.1 to 1 |
|  |  |  | Cc1cn2cc(NC(=O)c3sc(N4CCNC(C)C4)cc3F)nc2c(C)n1 (stereo not drawn) [Compound 168, N-[6,8-dimethylimidazo[1,2-a]pyrazin-2-yl]-3-fluoro-5-(3-methylpiperazin-1-yl)thiophene-2-carboxamide] | 1 to 10 | > 10 |
| > 0.01 | 1 to 10 |  | Cc1cn2cc(NC(=O)c3sc(N4CCNC(C)C4)c(Cl)c3Cl)cc(F)c2n1 (stereo not drawn) [Compound 186] | > 10 | > 10 |
